Values of other authors, collected in paper PMC5356695, “A phase 1 study of oral ridaforolimus in pediatric patients with advanced solid tumors” (Oncotarget, 2016).

Columns and labels:
[1] = test system: pediatric patients with advanced solid tumors; design: method as in PMID 27185573; conditions: dalotuzumab alone; cited from earlier work
[2] = test system: in vivo solid tumor models; design: method as in PMID 17635004; conditions: cited from earlier work
[3] = test system: children with refractory solid tumors; design: method as in PMID 17947729; conditions: cited from earlier work
[4] = test system: neuroblastoma and high-grade glioma; design: method as in PMID 22033322; conditions: single-agent therapy; cited from earlier work
[5] = test system: children with recurrent or refractory solid tumors; design: method as in PMID 21690471; conditions: highest dose tested 150 mg/m^2, once weekly; cited from earlier work

dalotuzumab: anti-IGF1R monoclonal antibody
Patients with confirmed partial response [1]: 1 of 20

CO[C@H]1C[C@@H]2CC[C@@H](C)[C@@](O)(O2)C(=O)C(=O)N2CCCC[C@H]2C(=O)O[C@H]([C@H](C)C[C@@H]2CC[C@@H](O)[C@H](OC)C2)CC(=O)[C@H](C)/C=C(\C)[C@@H](O)[C@@H](OC)C(=O)[C@H](C)C[C@H](C)/C=C/C=C/C=C/1C [rapamycin]
Models with significant differences in event-free survival distributions compared with controls [2]: 27 of 36

CO[C@H]1C[C@@H]2CC[C@@H](C)[C@@](O)(O2)C(=O)C(=O)N2CCCC[C@H]2C(=O)O[C@H]([C@H](C)C[C@@H]2CC[C@@H](OCCO)[C@H](OC)C2)CC(=O)[C@H](C)/C=C(\C)[C@@H](O)[C@@H](OC)C(=O)[C@H](C)C[C@H](C)/C=C/C=C/C=C/1C [everolimus]
RP2D ([3]; children, oral): 5 mg/m^2 | Patients with DLTs (grade 3 increased ALT, mucositis, diarrhea) ([3]; highest dose of 6.5 mg/m^2, oral): 3 of 3

CO[C@H]1C[C@@H]2CC[C@@H](C)[C@@](O)(O2)C(=O)C(=O)N2CCCC[C@H]2C(=O)O[C@H]([C@H](C)C[C@@H]2CC[C@@H](OC(=O)C(C)(CO)CO)[C@H](OC)C2)CC(=O)[C@H](C)/C=C(\C)[C@@H](O)[C@@H](OC)C(=O)[C@H](C)C[C@H](C)/C=C/C=C/C=C/1C [temsirolimus]
Disease stabilization [4]: Prolonged stable disease was observed | Patients with DLT (grade 3 anorexia) [5]: 1 of 7
